Experimental data published in patent publication US20120100071A1, “SYNTHESIS AND USE OF RADIOLABELLED INSULIN ANALOGUES” (priority 2009, published 2012).

Tested on: Akt1 phosphorylation (S473) in H4IIE cells
Assay: Akt1 activation, phospho-Akt1 (Ser473) ELISA
Format: cell-based
Conditions: FIG. 10c
Protocol: The insulin receptor autophosphorylation was assessed through the use of an enzyme-linked immunosorbant assay (ELISA). […] Finally, to probe the downstream signaling resulting from insulin binding, a second ELISA experiment was performed to monitor stimulation of Akt phosphorylation (S473).
Confluent H4IIE cells were serum deprived for 4 hours in […] β-mercaptoethanol and 0.25% bovine serum albumin. […] Cells were lysed in 0.5 ml 1× Cell Lysis Buffer (Cell Signaling, #7160) and cells broken open by brief sonication. Lysates were collected and centrifuged for 10 minutes at 14,000 rpm. Supernatants were recovered, diluted 1:1 with Sample Diluent, and phospho-Akt1 was quantitated in 100 μL of each diluted supernatant using the PathScan phospho-Akt1 (Ser473) ELISA (Cell Signaling, #7160).

With “B^1-[Re(CO)3{bis(2-pyridylmethyl)pentanoyl-6-aminohexanoyl)}]insulin [compound 6]” the “Akt phosphorylation (S473) response compared to unmodified human insulin” value was “not significantly different”.
